Measurements from patent US9057727B2, “Screening methods using G-protein coupled receptors and related compositions” (The General Hospital Corporation, priority 2007, dated 2015).
Ends that are not written are not given here. Peptide text beside a SMILES is read from it.

Legend:
Assay type in all cases: cell-based
SaOS cells = experiment: cAMP production in SaOS cells, dose-response; conditions: Table 3; read-out: dose-response cAMP in SaOS (EC50)
[1] = tested on: LLCPK1-B64 cells or SaOS-2 cells; experiment: cAMP screen of substituted PTHrP(1-28) analogs (% parent); conditions: parent PTHrP(1-28)NH
Outline: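 LLCPK1-B64 or SaOS-2 cells exposed to peptide analogs at 3×10^−9M with IBMX for 30 minutes at room temperature, then cAMP measured. Each analog's response expressed as percentage of that for parent PTHrP(1-28).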

MC3T3-E1 cells [2] = experiment: cAMP screen of EALK-PTHrP(1-31)/(1-34) variants (% parent)
From the text: FIGS. 32A and 32B are graphs showing the effects of amino acid substitutions in the 29-31 region of EALK-PTHrP(1-31) (SEQ ID NO:94) (FIG. 32A) and the 29-33 region of EALK-PTHrP(1-34) (SEQ ID NO:112) (FIG. 32B) on induction of cAMP activity in MC3T3-E1 cells. Substitutions at position 29 for EALK-PTHrP(1-31) were G^29 to S^29 (SEQ ID NO:95-96), L^29 (SEQ ID NO:176), and N^29 to K^29 (SEQ ID NO:97-101). Substitutions at position 30 for EALK-PTHrP(1-31) were G^30 to D^30 (SEQ ID NO:102-106), W^30 (SEQ ID NO:177), and K^30 (SEQ ID NO:107). […] Substitutions for EALK-PTHrP(1-34) A^30 to A^33 (SEQ ID NO:113-116) and EALK-PTHrP(1-28)/PTH(29-34) (SEQ ID NO:117).
To optimize the activity of the EALK-PTHrP peptides, we generated EALK-PTHrP([…]) and PTHrP(1-34) variants with substitutions in the 29-33 region. In the 1-30 scaffold, Gly, Ser, Leu, Asn, Gln, Trp, Glu, and Lys were substituted at position 29; Gly, Ser, Leu, Asn, Asp, Trp, and Lys were substituted at position 30; and Ser, Leu, Asn, Val, Trp, Glu, and Lys were substituted at position 31. […] A predicted advantage of these longer-length peptides, relative to the PTHrP(1-30) scaffold, is that they will have longer a longer half-life in circulation due to slower clearance. The C-terminal substitutions were thus designed to provide the added chain length, but to avoid increasing R^0 binding affinity, which occurs when the native PTHrP(29-34) region (SEQ ID NO:186) is installed. These peptides were tested for cAMP activity in MC3T3-E1 cells.

MC3T3-E1 cells [3] = experiment: cAMP in MC3T3-E1 cells, dose-response; conditions: Table 3; read-out: dose-response cAMP in MC3T3-E1 (EC50)
Experimental: In the 1-30 scaffold, Gly, Ser, Leu, Asn, Gln, Trp, Glu, and Lys were substituted at position 29; Gly, Ser, Leu, Asn, Asp, Trp, and Lys were substituted at position 30; and Ser, Leu, Asn, Val, Trp, Glu, and Lys were substituted at position 31. […] These peptides were tested for cAMP activity in MC3T3-E1 cells.

[4] = parent E18,A22,L25,K26-PTHrP(1-34)OH
[5] = parent E18,A22,L25,K26-PTHrP(1-31)OH

Row | EC50 (MC3T3-E1 cells [3]) [nM] | Compound | screen cAMP (% parent) (MC3T3-E1 cells [2]; [5]) | further results
1 | – | CC[C@H](C)[C@H](NC(=O)[C@H](CC(C)C)NC(=O)[C@H](CCCCN)NC(=O)[C@H](CC(C)C)NC(=O)[C@H](CC(C)C)NC(=O)[C@H](Cc1ccccc1)NC(=O)[C@H](CO)NC(=O)[C@H](CCCNC(=N)N)NC(=O)[C@H](CCCNC(=N)N)NC(=O)[C@H](CCCNC(=N)N)NC(=O)[C@H](CCC(=O)O)NC(=O)[C@H](CC(=O)O)NC(=O)[C@H](CCC(N)=O)NC(=O)[C@@H](NC(=O)[C@H](CO)NC(=O)[C@H](CCCCN)NC(=O)CNC(=O)[C@H](CCCCN)NC(=O)[C@H](CC(=O)O)NC(=O)[C@H](Cc1c[nH]cn1)NC(=O)[C@H](CC(C)C)NC(=O)[C@H](CC(C)C)NC(=O)[C@H](CCC(N)=O)NC(=O)[C@H](Cc1c[nH]cn1)NC(=O)[C@H](CCC(=O)O)NC(=O)[C@H](CO)NC(=O)[C@@H](NC(=O)[C@H](C)N)C(C)C)[C@@H](C)CC)C(N)=O [E18, S22, L25, K26-PTHrP(1-28)NH, E18,S22,L25,K26-PTHrP(1-28)] (H-AVSEHQLLHDKGKSIQDERRRSFLLKLI-NH2; N-terminus assumed) | – | EC50 (SaOS cells): 0.055 nM; screen cAMP (% parent) [1]: 337 % parent
2 | – | AVSEHQLLHDKGKSIQDARRRAFLKKLI [A18, 22, K25, 26-PTHrP(1-28)NH, A18,22,K25,26-PTHrP(1-28)] | – | EC50 (SaOS cells): 0.012 nM; screen cAMP (% parent) [1]: 349 % parent
3 | – | AVSEHQLLHDKGKSIQDARRRSFLKKLI [A18, S22, K25, 26-PTHrP(1-28)NH, A18,S22,K25,26-PTHrP(1-28)] | – | EC50 (SaOS cells): 0.015 nM; screen cAMP (% parent) [1]: 316 % parent
4 | – | AVSEHQLLHDKGKSIQDERRRAFLKKLI [E18, A22, K25, 26-PTHrP(1-28)NH, E18,A22,K25,26-PTHrP(1-28)] | – | EC50 (SaOS cells): 0.054 nM; screen cAMP (% parent) [1]: 323 % parent
5 | 0.14 | AVSEHQLLHDKGKSIQDERRRAFLLKLIAAIHTA [E18, A22, L25, K26, A30-PTHrP(1-34)OH, E18,A22,L25,K26,A30-PTHrP(1-34)] | – | screen cAMP (% parent) (MC3T3-E1 cells [2]; [4]): 237 % parent
6 | 0.32 | AVSEHQLLHDKGKSIQDERRRAFLLKLIADI [E18, A22, L25, K26, D30-PTHrP(1-31)OH, E18,A22,L25,K26,D30-PTHrP(1-31)] | 251 | –
7 | 0.15 | AVSEHQLLHDKGKSIQDERRRAFLLKLIAEAHTA [E18, A22, L25, K26, A31-PTHrP(1-34)OH, E18,A22,L25,K26,A31-PTHrP(1-34)] | – | screen cAMP (% parent) (MC3T3-E1 cells [2]; [4]): 249 % parent
8 | 0.78 | AVSEHQLLHDKGKSIQDERRRAFLLKLIAEI [E18, A22, L25, K26-PTHrP(1-31)OH, E18,A22,L25,K26-PTHrP(1-31)] | 100 | –
9 | 0.45 | AVSEHQLLHDKGKSIQDERRRAFLLKLIAEIHTA [E18, A22, L25, K26-PTHrP(1-34)OH, E18,A22,L25,K26-PTHrP(1-34)] | – | screen cAMP (% parent) (MC3T3-E1 cells [2]; [4]): 100 % parent
10 | 0.25 | AVSEHQLLHDKGKSIQDERRRAFLLKLIAEL [E18, A22, L25, K26, L31-PTHrP(1-31)OH, E18,A22,L25,K26,L31-PTHrP(1-31)] | 198 | –
11 | 0.2 | AVSEHQLLHDKGKSIQDERRRAFLLKLIAKI [E18, A22, L25, K26, K30-PTHrP(1-31)OH, E18,A22,L25,K26,K30-PTHrP(1-31)] | 245 | –
12 | 0.12 | AVSEHQLLHDKGKSIQDERRRAFLLKLIASI [E18, A22, L25, K26, S30-PTHrP(1-31)OH, E18,A22,L25,K26,S30-PTHrP(1-31)] | 331 | –
13 | 0.28 | AVSEHQLLHDKGKSIQDERRRAFLLKLIKEI [E18, A22, L25, K26, K29-PTHrP(1-31)OH, E18,A22,L25,K26,K29-PTHrP(1-31)] | 227 | –
14 | 0.56 | AVSEHQLLHDKGKSIQDERRRAFLLKLIQDVHNF [E18,A22,L25,K26,Q29,D30,V31,N33,F34-PTHrP(1-34)] | – | screen cAMP (% parent) (MC3T3-E1 cells [2]; [4]): 204 % parent
15 | 0.59 | AVSEHQLLHDKGKSIQDERRRAFLLKLIQEI [E18, A22, L25, K26, Q29-PTHrP(1-31)OH, E18,A22,L25,K26,Q29-PTHrP(1-31)] | 226 | –
16 | 0.41 | AVSEHQLLHDKGKSIQDERRRAFLLKLISEI [E18, A22, L25, K26, S29-PTHrP(1-31)OH, E18,A22,L25,K26,S29-PTHrP(1-31)] | 209 | –
17 | – | E18,A22,L25,K26,A32-PTHrP(1-34) (AVSEHQLLHDKGKSIQDERRRAFLLKLIAEIATA-OH) [E18, A22, L25, K26, A32-PTHrP(1-34)OH] | – | screen cAMP (% parent) (MC3T3-E1 cells [2]; [4]): 197 % parent
18 | – | E18,A22,L25,K26,A33-PTHrP(1-34) (AVSEHQLLHDKGKSIQDERRRAFLLKLIAEIHAA-OH) [E18, A22, L25, K26, A33-PTHrP(1-34)OH] | – | screen cAMP (% parent) (MC3T3-E1 cells [2]; [4]): 196 % parent
19 | – | E18,A22,L25,K26,E29-PTHrP(1-31) (AVSEHQLLHDKGKSIQDERRRAFLLKLIEEI-OH) [E18, A22, L25, K26, E29-PTHrP(1-31)OH] | 100 | –
20 | – | E18,A22,L25,K26,G29-PTHrP(1-31) (AVSEHQLLHDKGKSIQDERRRAFLLKLIGEI-OH) [E18, A22, L25, K26, G29-PTHrP(1-31)OH] | 206 | –
21 | – | E18,A22,L25,K26,G30-PTHrP(1-31) (AVSEHQLLHDKGKSIQDERRRAFLLKLIAGI-OH) [E18, A22, L25, K26, G30-PTHrP(1-31)OH] | 286 | –
22 | – | E18,A22,L25,K26,K31-PTHrP(1-31) (AVSEHQLLHDKGKSIQDERRRAFLLKLIAEK-OH) [E18, A22, L25, K26, K31-PTHrP(1-31)OH] | 134 | –
23 | – | E18,A22,L25,K26,L30-PTHrP(1-31) (AVSEHQLLHDKGKSIQDERRRAFLLKLIALI-OH) [E18, A22, L25, K26, L30-PTHrP(1-31)OH] | 185 | –
24 | – | E18,A22,L25,K26,N29-PTHrP(1-31) (AVSEHQLLHDKGKSIQDERRRAFLLKLINEI-OH) [E18, A22, L25, K26, M29-PTHrP(1-31)OH] | 210 | –
25 | – | E18,A22,L25,K26,N30-PTHrP(1-31) (AVSEHQLLHDKGKSIQDERRRAFLLKLIANI-OH) [E18, A22, L25, K26, N30-PTHrP(1-31)OH] | 189 | –
26 | – | E18,A22,L25,K26,S31-PTHrP(1-31) (AVSEHQLLHDKGKSIQDERRRAFLLKLIAES-OH) [E18, A22, L25, K26, S31-PTHrP(1-31)OH] | 99 | –
27 | – | E18,A22,L25,K26,V31-PTHrP(1-31) (AVSEHQLLHDKGKSIQDERRRAFLLKLIAEV-OH) [E18, A22, L25, K26, V31-PTHrP(1-31)OH] | 181 | –
28 | – | E18,A22,L25,K26,W29-PTHrP(1-31) (AVSEHQLLHDKGKSIQDERRRAFLLKLIWEI-OH) [E18, A22, L25, K26, W29-PTHrP(1-31)OH] | 142 | –
